From patent US11780830B2, “Triazolone derivatives or salts thereof and pharmaceutical compositions comprising the same” (YUHAN CORPORATION, priority 2018, dated 2023)
Where a name gives a salt, the structure may show the parent alone.

Experiments:
Type in all cases: biochemical
[1] = molecular target: T1, recombinant human VAP-1 (Homo sapiens, UniProt Q16853); test: Activity on recombinant human VAP-1, HRP-coupled Amplex Red hydrogen peroxide assay; conditions: substrate 1 mM benzylamine; compound incubated with enzyme at 37° C. for 30 minutes; pH 7.4; read-out: Inhibitory Activity (IC50, nM) human VAP-1
T1 construct: purchased R&D systems
T1 sequence (Q16853 1-763): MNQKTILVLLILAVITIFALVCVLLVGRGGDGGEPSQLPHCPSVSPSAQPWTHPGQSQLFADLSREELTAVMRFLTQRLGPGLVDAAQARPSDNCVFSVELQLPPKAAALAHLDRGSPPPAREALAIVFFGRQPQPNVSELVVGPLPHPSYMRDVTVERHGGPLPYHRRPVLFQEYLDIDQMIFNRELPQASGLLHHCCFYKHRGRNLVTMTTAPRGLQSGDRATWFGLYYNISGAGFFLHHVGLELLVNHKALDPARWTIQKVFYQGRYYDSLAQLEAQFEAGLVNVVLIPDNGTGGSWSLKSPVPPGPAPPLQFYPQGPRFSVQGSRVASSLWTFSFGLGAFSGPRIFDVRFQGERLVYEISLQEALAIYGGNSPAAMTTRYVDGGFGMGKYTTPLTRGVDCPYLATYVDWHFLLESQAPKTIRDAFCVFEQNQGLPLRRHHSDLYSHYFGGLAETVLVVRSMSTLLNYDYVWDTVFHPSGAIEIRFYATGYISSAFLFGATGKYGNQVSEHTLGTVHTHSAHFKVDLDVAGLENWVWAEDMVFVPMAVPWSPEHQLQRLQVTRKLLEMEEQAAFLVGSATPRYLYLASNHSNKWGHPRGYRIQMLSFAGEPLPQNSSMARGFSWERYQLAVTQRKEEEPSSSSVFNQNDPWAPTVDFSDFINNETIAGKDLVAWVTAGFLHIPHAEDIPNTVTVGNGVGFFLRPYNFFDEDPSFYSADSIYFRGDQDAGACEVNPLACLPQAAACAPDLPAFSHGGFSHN
Description: (§1) The compounds according to the present technology were evaluated in terms of activity on recombinant human VAP-1 (R&D systems) by measuring the level of hydrogen peroxide in horseradish peroxidase (HRP)-coupled reaction using Amplex Red Hydrogen Peroxide Assay Kit (Molecular Probes, Invitrogen, USA). The experiment was carried out at room temperature using benzylamine as a substrate. In the HRP-coupled reaction, hydrogen peroxide oxidation of 10-acetyl-3,7-dihydroxyphenoxazine (Amplex Red reagent) produces resorufin, which is a highly fluorescent compound. Briefly, the test compound was dissolved in dimethyl sulfoxide (DMSO) at a concentration of 20 mM. The dose-response assessment was made by 1:3 serial dilution in DMSO, thereby creating an 8 point curve. The concentration of the upper part was controlled according to the efficacy of the compounds, followed by dilution with a reaction buffer solution to obtain a final DMSO concentration less than 1%. To each well of a 96 black well plate, human VAP-1 purified in 50 mM sodium phosphate buffer solution (pH7.4) was added. The test compounds dissolved in DMSO were incubated with the human VAP-1 enzymes at 37° C. for 30 minutes. After 30-minute incubation, each well is added with a reaction mixture containing 200 uM Amplex Red reagent prepared from 50 mM sodium phosphate buffer solution (pH 7.4), 1 mM benzylamine, and 1 U/mL HRP. Fluorescence intensity was measured at several time points during 1-2 hours using a microplate reader (Flexstation3, Molecular Devices) under the wavelength condition exciting at 544 nm and reading the emission at 590 nm. The inhibitory effect of the compounds was measured as a decrease (%) in the signal rate as compared to the control group without any inhibitor (only diluted DMSO). Data was fixed to a logistic model with four variables and IC50 value was calculated using GraphPad Prism program.

[2] = molecular target: T2, recombinant human MAO-A (monoamine oxidase-A) (Homo sapiens, UniProt P21397); test: Activity on recombinant human MAO-A, method similar to the VAP-1 assay; conditions: substrate 0.5 mM tyramine; read-out: Inhibitory Activity (IC50, nM) MAO-A
T2 construct: purchased Sigma-Aldrich
T2 sequence (P21397 1-527): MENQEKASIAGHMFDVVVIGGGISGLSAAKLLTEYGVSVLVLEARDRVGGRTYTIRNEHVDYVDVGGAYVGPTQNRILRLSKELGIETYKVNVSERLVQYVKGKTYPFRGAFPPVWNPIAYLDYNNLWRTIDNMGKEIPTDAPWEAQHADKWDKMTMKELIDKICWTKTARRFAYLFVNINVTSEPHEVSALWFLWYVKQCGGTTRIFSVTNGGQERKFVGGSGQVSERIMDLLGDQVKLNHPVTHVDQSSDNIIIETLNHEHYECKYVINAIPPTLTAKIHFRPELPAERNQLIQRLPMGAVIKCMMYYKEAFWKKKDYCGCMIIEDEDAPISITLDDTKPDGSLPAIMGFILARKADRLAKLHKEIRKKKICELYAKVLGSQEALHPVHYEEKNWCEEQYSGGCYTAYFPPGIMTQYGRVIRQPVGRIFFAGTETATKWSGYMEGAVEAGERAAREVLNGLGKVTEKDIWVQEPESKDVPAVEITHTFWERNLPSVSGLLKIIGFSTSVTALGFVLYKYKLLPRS
Description: as §1
(§2) In addition, the compounds according to the present technology were evaluated in terms of activity on a recombinant human MAO-A (monoamine oxidase-A, Sigma-Aldrich) and a recombinant human MAO-B (monoamine oxidase-B, Sigma-Aldrich) by using as substrates, 0.5 mM tyramine and 1 mM benzylamine, respectively, with a method similar to the activity evaluation method for recombinant human VAP-1. The compounds according to the present technology were also evaluated in terms of activity on a recombinant human DAO (diamine oxidase, R&D systems) by using as a substrate 1 mM putrescine with a method similar to the activity evaluation method for recombinant human VAP-1.

[3] = molecular target: T3, recombinant human MAO-B (monoamine oxidase-B) (Homo sapiens, UniProt P27338); test: Activity on recombinant human MAO-B, method similar to the VAP-1 assay; conditions: substrate 1 mM benzylamine; read-out: Inhibitory Activity (IC50, nM) MAO-B
T3 construct: purchased Sigma-Aldrich
T3 sequence (P27338 1-520): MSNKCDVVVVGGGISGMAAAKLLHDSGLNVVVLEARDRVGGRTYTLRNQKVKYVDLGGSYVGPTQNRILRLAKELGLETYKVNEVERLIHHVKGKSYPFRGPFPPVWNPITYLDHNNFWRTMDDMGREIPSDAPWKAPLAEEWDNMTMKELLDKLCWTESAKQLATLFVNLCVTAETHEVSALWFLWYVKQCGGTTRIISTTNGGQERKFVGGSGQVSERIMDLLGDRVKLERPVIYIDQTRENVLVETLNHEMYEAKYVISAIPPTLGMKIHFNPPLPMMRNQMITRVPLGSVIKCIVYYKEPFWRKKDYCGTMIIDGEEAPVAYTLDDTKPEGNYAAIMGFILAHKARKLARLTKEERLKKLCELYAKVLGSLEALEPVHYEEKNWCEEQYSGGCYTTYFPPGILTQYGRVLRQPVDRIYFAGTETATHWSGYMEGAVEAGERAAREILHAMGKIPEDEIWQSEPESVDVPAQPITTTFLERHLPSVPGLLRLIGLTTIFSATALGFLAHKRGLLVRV
Description: as §1, §2

[4] = molecular target: T4, recombinant human DAO (diamine oxidase) (Homo sapiens, UniProt P19801); test: Activity on recombinant human DAO, method similar to the VAP-1 assay; conditions: substrate 1 mM putrescine; read-out: Inhibitory Activity (IC50, nM) DAO
T4 construct: purchased R&D systems
T4 sequence (P19801 20-751): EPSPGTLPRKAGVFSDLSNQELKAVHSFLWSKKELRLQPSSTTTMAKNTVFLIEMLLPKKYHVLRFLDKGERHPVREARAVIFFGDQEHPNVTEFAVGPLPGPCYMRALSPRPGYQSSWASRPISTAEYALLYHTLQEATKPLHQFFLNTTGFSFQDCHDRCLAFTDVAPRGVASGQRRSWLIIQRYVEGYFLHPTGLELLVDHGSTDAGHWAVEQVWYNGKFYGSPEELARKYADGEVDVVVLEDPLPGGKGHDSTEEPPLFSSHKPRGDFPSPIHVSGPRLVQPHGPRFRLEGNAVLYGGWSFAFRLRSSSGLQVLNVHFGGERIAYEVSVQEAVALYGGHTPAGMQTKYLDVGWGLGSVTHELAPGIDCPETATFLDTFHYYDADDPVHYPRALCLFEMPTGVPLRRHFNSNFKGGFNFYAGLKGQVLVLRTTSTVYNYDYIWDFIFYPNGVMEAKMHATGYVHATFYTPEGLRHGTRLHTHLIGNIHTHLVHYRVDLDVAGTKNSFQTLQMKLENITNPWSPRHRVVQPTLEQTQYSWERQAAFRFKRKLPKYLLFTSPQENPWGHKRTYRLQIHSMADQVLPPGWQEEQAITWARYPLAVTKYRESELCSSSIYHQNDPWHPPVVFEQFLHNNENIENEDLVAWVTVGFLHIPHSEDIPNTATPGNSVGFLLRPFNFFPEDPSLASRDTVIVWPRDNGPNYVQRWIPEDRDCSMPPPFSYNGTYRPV
Description: as §1, §2

IC50 [1] [nM] | IC50 [2] [nM] | IC50 [3] [nM] | IC50 [4] [nM] | Structure (SMILES)
0.2 | > 100000 | 540 | 900 | NC/C(=C\F)Cn1ncn(Cc2ccc(-c3ccc4c(c3)COC(=O)N4)s2)c1=O [Example 101, 6-[5-(1-[(2E)-2-(aminomethyl)-3-fluoroprop-2-en-1-yl]-5-oxo-1,5-dihydro-4H-1,2,4-triazol-4-ylmethyl)thiophen-2-yl]-1,4-dihydro-2H-3,1-benzoxazin-2-one hydrochloride]
4.7 | > 100000 | 980 | 530 | NC/C(=C\F)Cn1ncn(Cc2ccc(-c3ccc(OCC(F)(F)F)nc3)s2)c1=O [Example 47, 2-[(2E)-2-(aminomethyl)-3-fluoroprop-2-en-1-yl]-4-(5-[6-(2,2,2-trifluoroethoxy)pyridin-3-yl]thiophen-2-ylmethyl)-2,4-dihydro-3H-1,2,4-triazol-3-one hydrochloride]
0.2 | > 100000 | > 10000 | 530 | NC/C(=C\F)Cn1ncn(Cc2ccc(-c3cc(F)c4c(c3)CC(=O)N4)s2)c1=O [Example 71, 5-[5-[[1-[(E)-2-(aminomethyl)-3-fluoro-allyl]-5-oxo-1,2,4-triazol-4-yl]methyl]-2-thienyl]-7-fluoro-indolin-2-one hydrochloride]
0.3 | > 100000 | 6700 | 1000 | CN1Cc2cc(-c3ccc(Cn4cnn(C/C(=C/F)CN)c4=O)s3)ccc2NC1=O [Example 147, 6-[5-({1-[(2E)-2-(aminomethyl)-3-fluoroprop-2-en-1-yl]-5-oxo-1,5-dihydro-4H-1,2,4-triazol-4-yl}methyl)thiophen-2-yl]-3-methyl-3,4-dihydroquinazolin-2(1H)-one]
0.2 | 29000 | 600 | 350 | Cc1c(-c2ccc(Cn3cnn(C/C(=C/F)CN)c3=O)s2)ccc2c1NC(=O)CO2 [Example 92, 6-[5-[[1-[(E)-2-(aminomethyl)-3-fluoro-allyl]-5-oxo-1,2,4-triazol-4-yl]methyl]-2-thienyl]-5-methyl-4H-1,4-benzoxazin-3-one hydrochloride]
3.3 | > 100000 | 930 | 12000 | NC/C(=C\F)Cn1ncn(Cc2ccc(-c3ccc(CO)cc3)s2)c1=O [Example 169, 2-[(2E)-2-(aminomethyl)-3-fluoroprop-2-en-1-yl]-4-({5-[4-(hydroxymethyl)phenyl]thiophen-2-yl}methyl)-2,4-dihydro-3H-1,2,4-triazol-3-one]
3.5 | > 100000 | 2100 | 1600 | NC/C(=C\F)Cn1ncn(Cc2ccc(C#Cc3cccc(N)c3)s2)c1=O [Example 125, 2-[(2E)-2-(aminomethyl)-3-fluoroprop-2-en-1-yl]-4-(5-[(3-aminophenyl)ethynyl]thiophen-2-ylmethyl)-2,4-dihydro-3H-1,2,4-triazol-3-one hydrochloride]
2.7 | > 100000 | 310 | 730 | CC(C)Oc1ccc(-c2ccc(Cn3cnn(C/C(=C/F)CN)c3=O)s2)cn1 [Example 185, 2-[(2E)-2-(aminomethyl)-3-fluoroprop-2-en-1-yl]-4-({5-[6-(propan-2-yloxy)pyridin-3-yl]thiophen-2-yl}methyl)-2,4-dihydro-3H-1,2,4-triazol-3-one]
0.8 | > 100000 | 700 | 280 | COc1cc(-c2ccc(Cn3cnn(C/C(=C/F)CN)c3=O)s2)cnc1OC [Example 178, 2-[(2E)-2-(aminomethyl)-3-fluoroprop-2-en-1-yl]-4-{[5-(5,6-dimethoxypyridin-3-yl)thiophen-2-yl]methyl}-2,4-dihydro-3H-1,2,4-triazol-3-one]
8.8 | > 100000 | > 100000 | 1100 | NC/C(=C\F)Cn1ncn(Cc2ccc(-c3ccc(N4CCNCC4)nc3)s2)c1=O [Example 199, 2-[(2E)-2-(aminomethyl)-3-fluoroprop-2-en-1-yl]-4-({5-[6-(piperazin-1-yl)pyridin-3-yl]thiophen-2-yl}methyl)-2,4-dihydro-3H-1,2,4-triazol-3-one]
